Measurements as given in PMC7060258 (Scientific Reports, 2020).
No end group written: not given here.

What was measured:
α-chymotrypsin = experiment: Thermodynamic parameters of complexes with α-chymotrypsin; format: binding; settings: complex with α-chymotrypsin, SPR
Procedure: The magnitudes of free energy change (∆G) of the complexes differed slightly from the same complexes of HCRG1 and HCRG2 and were lower than for the InhVJ ones.
The study of the interaction of serine proteinases with rHCIQ2c1 and rHCIQ4c7 was performed on SPR biosensor Biacore 3000 (GE Healthcare, USA) running under the program “Biacore 3000 Control Software v.1.0”. The evaluation of data was carried out using “Biacore Evaluation v.4.1”. Peptides were covalent immobilized on carboxymethylated surface of the Biacore CM4 sensor chip (GE Healthcare, USA) activated by EDC/NHS (N-hydroxysuccinimide/1-ethyl-3-(3-dimethylaminopropyl)carbodiimide hydrochloride) mixture by the injection of peptide solution (100 µg/ml) in 10 mM sodium acetate (pH 5.5) during 10 min with flow rate 5 µl/min. Quantities of immobilized peptides were 970 RU (resonance units, 1 RU corresponds 1 pg peptide) for rHCIQ2c1 and 460 RU for rHCIQ4c7. In all of the experiments, the flow cell 1 (Fc1) without the immobilized polypeptides was considered as the reference cell for the correction of the signal responses. HBS (HEPES buffered saline-NaCl): 0.15 M NaCl, 0.01 M HEPES, pH 7.4 (cat. no. BR-1003-69, GE Healthcare, USA) was used as the running buffer for the SPR assays. Protease solutions at concentrations from 1 nM to 5 μM were passed through measuring and control biosensor cells at 25 °C during 5 min with a flow rate 5 µl/min. Further complex breakdown was recorded during at most 10 min. After each cycle of SPR measurement, the sensing surface was regenerated by the injection of 50 mM NaOH for 0.5 min at a flow rate of 50 μl/min. Changes in Gibbs free energy (ΔG) at 25 °C were calculated by the following equation:1 ΔG=RTlnKD, where KD is the dissociation constant. Changes in enthalpy (ΔH) and entropic term (−TΔS) were calculated from the linear equation:2 ΔG=ΔH−TΔS, using the liner approximation of temperature dependence of ΔG (Van’t Hoff diagram).

hKv1.3 = experiment: Two-electrode voltage clamp, hKv1.3 in X. laevis oocytes; format: cell-based; settings: 10 μM, 18–22 °C, n ≥ 3
Procedure: (§1) For the expression of the voltage-gated potassium channels (rKv1.1, rKv1.2, hKv1.3, rKv1.4, rKv1.5, rKv1.6, Shaker IR and hERG) in X. laevis oocytes, the linearized plasmids were transcribed using the T7 or SP6 mMESSAGE-mMACHINE transcription kit (Ambion, USA). The harvesting of stage V–VI oocytes from an anaesthetized female X. laevis frog was previously described. Oocytes were injected with 50 nl of cRNA at a concentration of 1 ng/nl using a micro-injector (Drummond Scientific, USA). The oocytes were incubated in a solution containing (in mM): NaCl, 96; KCl, 2; CaCl2, 1.8; MgCl2, 2; HEPES, 5 (pH 7.4), supplemented with 50 mg/l gentamycin sulfate.
(§2) Two-electrode voltage-clamp recordings were performed at room temperature (18–22 °C) using a Geneclamp 500 amplifier (Molecular Devices, USA) controlled by a pClamp data acquisition system (Axon Instruments, USA), as described in[47]. Whole cell currents from oocytes were recorded 1–4 days after injection. Bath solution composition was ND96 (in mM): NaCl, 96; KCl, 2; CaCl2, 1.8; MgCl2, 2 and HEPES, 5 (pH 7.4). Voltage and current electrodes were filled with 3 M KCl. The resistances of both electrodes were kept between 0.7 and 1.5 MΩ. […] All data were analysed using pClamp Clampfit 10.0 (Molecular Devices, Downingtown, PA, USA) and Origin 7.5 software (Originlab, Northampton, MA, USA).

rKv1.4 = experiment: Two-electrode voltage clamp, rKv1.4 in X. laevis oocytes; format: cell-based; settings: 10 μM, 18–22 °C, n ≥ 3
Procedure: as §1, §2

rKv1.5 = experiment: Two-electrode voltage clamp, rKv1.5 in X. laevis oocytes; format: cell-based; settings: 10 μM, 18–22 °C, n ≥ 3
Procedure: as §1, §2

hERG = experiment: Two-electrode voltage clamp, hERG in X. laevis oocytes; format: cell-based; settings: 10 μM, 18–22 °C, n ≥ 3
Procedure: as §1, §2

[1] = test system: murine neuroblastoma Neuro2a cells; experiment: 6-OHDA-induced cytotoxicity, cell viability (MTT); format: cell-based; settings: for Increase of cell viability relative to cells treated with 6-OHDA: 10 μM peptide, 30 min before 6-OHDA 25 µM, mean of three independent experiments
Procedure: Effects of rHCIQ2c1 and rHCIQ4c7 were studied using murine neuroblastoma Neuro2a cells in the presence of 6-OHDA (25 µM). After incubation of Neuro2a cells with recombinant peptides and 6-OHDA for 24 h, the cell viability was evaluated using MTT assay.
The cytoprotective activities of peptides was examined, as described previously. Neuro2a murine neuroblastoma cells (ATCC CCL-131) (American Type Culture Collection, Virginia, USA) were cultivated in DMEM medium (BioloT, Russia) with 10% of fetal bovine serum (FBS, BioloT, Russia) and 80 µg/ml gentamicine (BioloT, Russia). The cells were seeded onto 96-well plate at concentration of 1 × 10^3 cells per well. Substances were added at different concentrations, and then cells were incubated for 30 min at 37 °C and 5% CO2. Cells were treated with 6-OHDA (25 μM) for 24 h at 37 °C with 5% CO2. Thereafter, medium was replaced with clean serum-free medium, and cells were treated with 3-(4,5-dimethylthiazol-2-yl)-2,5-diphenyltetrazolium bromide (MTT) for 4 h[77]. Then the medium was collected and whole cells were lysed in 100% dimethylsulfoxide (DMSO), the absorbance was measured at 570 nm using Multiscan FC (Thermo Fisher Scientific, USA). […] The results were expressed as the mean ± SD of three independent experiments.

rHCIQ2c1: recombinant Kunitz-peptide of Heteractis crispa, most prevalent isoform, mature peptide 58 aa, expressed in E. coli (IQGNICSEPKKVGRCRGSFPRFYFDSETGKCTPFIYGGCGGNGNNFETLHACRAICRA; ends and bridges not checked; cysteine pairing not given here)
T∆S, entropic term (α-chymotrypsin; 10–40 °С, Van't Hoff diagram): 15.12 kcal/mol | ∆H, enthalpy change (α-chymotrypsin; 10–40 °С, Van't Hoff diagram): 4.68 kcal/mol | ∆G, Gibbs energy change (α-chymotrypsin; 25 °C, ΔG=RTlnKD): –43.70 kJ/mol | Activity on Kv1.3 (hKv1.3): neither 10 μM of rHCIQ2c1 nor rHCIQ4c7 exerted any activity on the Kv channels | Activity on Kv1.4 (rKv1.4): neither 10 μM of rHCIQ2c1 nor rHCIQ4c7 exerted any activity on the Kv channels | Activity on Kv1.5 (rKv1.5): neither 10 μM of rHCIQ2c1 nor rHCIQ4c7 exerted any activity on the Kv channels | Activity on hERG (hERG): neither 10 μM of rHCIQ2c1 nor rHCIQ4c7 exerted any activity on the Kv channels | Increase of cell viability relative to cells treated with 6-OHDA ([1]; 24 h, MTT): 47% | Significance of effect on viability of 6-OHDA-treated cells ([1]; 10 μM, 6-OHDA 25 µM, 24 h, * p < 0.05): The reliable effect was revealed | Toxicity to Neuro2a cells ([1]; 10 μM, MTT): non-toxic | Concentration of maximum cytoprotective activity ([1]; 6-OHDA 25 µM, 24 h, MTT): 10 µM | Dose-response of cytoprotective effect ([1]; 6-OHDA 25 µM, 24 h, MTT): linear dose-dependent character

rHCIQ4c7: recombinant Kunitz-peptide of Heteractis crispa, isoform with the rare substitution Gly17Glu
Activity on Kv1.3 (hKv1.3): neither 10 μM of rHCIQ2c1 nor rHCIQ4c7 exerted any activity on the Kv channels | Activity on Kv1.4 (rKv1.4): neither 10 μM of rHCIQ2c1 nor rHCIQ4c7 exerted any activity on the Kv channels | Activity on Kv1.5 (rKv1.5): neither 10 μM of rHCIQ2c1 nor rHCIQ4c7 exerted any activity on the Kv channels | Activity on hERG (hERG): neither 10 μM of rHCIQ2c1 nor rHCIQ4c7 exerted any activity on the Kv channels | Increase of cell viability relative to cells treated with 6-OHDA ([1]; 24 h, MTT): 14% | Toxicity to Neuro2a cells ([1]; 10 μM, MTT): non-toxic
